Laboratory results reported in US12435031B2, “Compound with broad-spectrum antibacterial activity and its antibacterial composition” (CHINA AGRICULTURAL UNIVERSITY, priority 2023, dated 2025).
Converted amounts (≈) assume the structure as drawn. Like-named read-outs stand apart in the source and are kept apart here.

Tests used:
[1] = test system: Clostridium perfringens; assay: microbe, parasite or virus in culture; format: cell-based
[2] = test system: Enterococcus; assay: microbe, parasite or virus in culture; format: cell-based; conditions: read-out: MICs

Q: Which MIC50 ([1]; Clostridium perfringens) does the source give for `CC[C@H]1OC(=O)C[C@@H](O)[C@H](C)[C@@H](O[C@@H]2O[C@H](C)[C@@H](O)[C@H](N(C)C)[C@H]2O)[C@@H](CCN2C[C@H](C)C[C@H](C)C2)C[C@@H](C)C(=O)/C=C/C(C)=C/[C@@H]1CO[C@@H]1O[C@H](C)[C@@H](O)[C@@H](OC)[C@H]1OC` [TMS, Tilmicosin] here?
A: 128 µg/mL (≈ 147 µM)

Q: And the MIC90 ([1]; Clostridium perfringens)?
A: > 128 µg/mL

Q: What about the MIC ([1]; Clostridium perfringens, read-out: MIC value against Clostridium perfringens, strain A3-1 (A-type)) of the same molecule?
A: 4 µg/mL (≈ 4.6 µM)

Q: And the MIC ([1]; Clostridium perfringens, read-out: MIC value against Clostridium perfringens, strain A3-2 (A-type))?
A: 2 µg/mL (≈ 2.3 µM)

Q: What about the MIC ([1]; Clostridium perfringens, read-out: MIC value against Clostridium perfringens, strain A57-1 (A-type)) of the same molecule?
A: 4 µg/mL (≈ 4.6 µM)

Q: And the MIC ([1]; Clostridium perfringens, read-out: MIC value against Clostridium perfringens, strain B4 (B-type))?
A: > 128 µg/mL

Q: What about the MIC ([1]; Clostridium perfringens, read-out: MIC value against Clostridium perfringens, strain B5 (B-type)) of the same molecule?
A: > 128 µg/mL

Q: And the MIC ([1]; Clostridium perfringens, read-out: MIC value against Clostridium perfringens, strain C3 (C-type))?
A: > 128 µg/mL

Q: What about the MIC ([1]; Clostridium perfringens, read-out: MIC value against Clostridium perfringens, strain C8 (C-type)) of the same molecule?
A: > 128 µg/mL

Q: And the MIC ([1]; Clostridium perfringens, read-out: MIC value against Clostridium perfringens, strain C59-1 (C-type))?
A: 2 µg/mL (≈ 2.3 µM)

Q: What about the MIC ([1]; Clostridium perfringens, read-out: MIC value against Clostridium perfringens, strain D14B (D-type)) of the same molecule?
A: 128 µg/mL (≈ 147 µM)

Q: What about the MIC ([1]; Clostridium perfringens, read-out: MIC value against Clostridium perfringens, strain F5-2 (F-type)) of the same molecule?
A: 128 µg/mL (≈ 147 µM)

Q: And the MIC ([1]; Clostridium perfringens, read-out: MIC value against Clostridium perfringens, strain F6-1 (F-type))?
A: 128 µg/mL (≈ 147 µM)

Q: What about the MIC ([1]; Clostridium perfringens, read-out: MIC value against Clostridium perfringens, strain F6-2 (F-type)) of the same molecule?
A: 128 µg/mL (≈ 147 µM)

Q: And the MIC ([1]; Clostridium perfringens, read-out: MIC value against Clostridium perfringens, strain F6-2-1 (F-type))?
A: > 128 µg/mL

Q: And the MIC ([1]; Clostridium perfringens, read-out: MIC value against Clostridium perfringens, strain F6-2-2 (F-type))?
A: 128 µg/mL (≈ 147 µM)

Q: And the MIC ([1]; Clostridium perfringens, read-out: MIC value against Clostridium perfringens, strain F7-1 (F-type))?
A: 64 µg/mL (≈ 73.6 µM)

Q: And the MIC ([1]; Clostridium perfringens, read-out: MIC value against Clostridium perfringens, strain F8-1 (F-type))?
A: 128 µg/mL (≈ 147 µM)

Q: What about the MIC ([1]; Clostridium perfringens, read-out: MIC value against Clostridium perfringens, strain H12-1 (H-type)) of the same molecule?
A: 4 µg/mL (≈ 4.6 µM)

Q: And the MIC ([1]; Clostridium perfringens, read-out: MIC value against Clostridium perfringens, strain H12-2 (H-type))?
A: 4 µg/mL (≈ 4.6 µM)

Q: And the MIC ([1]; Clostridium perfringens, read-out: MIC value against Clostridium perfringens, strain H13-1 (H-type))?
A: 4 µg/mL (≈ 4.6 µM)

Q: What about the MIC ([1]; Clostridium perfringens, read-out: MIC value against Clostridium perfringens, strain H14-1 (H-type)) of the same molecule?
A: 128 µg/mL (≈ 147 µM)

Q: What about the MIC ([1]; Clostridium perfringens, read-out: MIC value against Clostridium perfringens, strain H14-2 (H-type)) of the same molecule?
A: 128 µg/mL (≈ 147 µM)

Q: And the MIC ([1]; Clostridium perfringens, read-out: MIC value against Clostridium perfringens, strain H14-4 (H-type))?
A: 128 µg/mL (≈ 147 µM)

Q: And the MIC ([1]; Clostridium perfringens, read-out: MIC value against Clostridium perfringens, strain H15-1 (H-type))?
A: 4 µg/mL (≈ 4.6 µM)

Q: What about the MIC ([1]; Clostridium perfringens, read-out: MIC value against Clostridium perfringens, strain H15-2 (H-type)) of the same molecule?
A: 128 µg/mL (≈ 147 µM)

Q: What about the MIC ([1]; Clostridium perfringens, read-out: MIC value against Clostridium perfringens, strain H15-3 (H-type)) of the same molecule?
A: 4 µg/mL (≈ 4.6 µM)

Q: And the MIC ([1]; Clostridium perfringens, read-out: MIC value against Clostridium perfringens, strain H16 (H-type))?
A: 128 µg/mL (≈ 147 µM)

Q: For `CC(=O)NC[C@H]1CN(c2ccc(N3CCOCC3)c(F)c2)C(=O)O1` [linezolid], which MIC [2] is on record?
A: 1 µg/mL (≈ 2.96 µM)

Q: For Penicillin, which “MIC value against Clostridium perfringens” value (“MIC value” below) ([1]; strain A3-1 (A-type)) is on record?
A: 0.25 µg/mL

Q: What about the “MIC value” value ([1]; strain A3-2 (A-type)) of the same molecule?
A: 0.5 µg/mL

Q: And the “MIC value” value ([1]; strain A57-1 (A-type))?
A: 0.25 µg/mL

Q: What about the “MIC value” value ([1]; strain B4 (B-type)) of the same molecule?
A: 0.5 µg/mL

Q: What about the “MIC value” value ([1]; strain B5 (B-type)) of the same molecule?
A: 0.5 µg/mL

Q: What about the “MIC value” value ([1]; strain C3 (C-type)) of the same molecule?
A: 2 µg/mL

Q: And the “MIC value” value ([1]; strain C8 (C-type))?
A: 0.25 µg/mL

Q: What about the “MIC value” value ([1]; strain C59-1 (C-type)) of the same molecule?
A: 0.125 µg/mL

Q: What about the “MIC value” value ([1]; strain D14B (D-type)) of the same molecule?
A: 0.5 µg/mL

Q: What about the “MIC value” value ([1]; strain F5-2 (F-type)) of the same molecule?
A: 0.125 µg/mL

Q: What about the “MIC value” value ([1]; strain F6-1 (F-type)) of the same molecule?
A: 0.25 µg/mL

Q: What about the “MIC value” value ([1]; strain F6-2 (F-type)) of the same molecule?
A: 0.125 µg/mL

Q: And the “MIC value” value ([1]; strain F6-2-1 (F-type))?
A: 0.25 µg/mL

Q: What about the “MIC value” value ([1]; strain F6-2-2 (F-type)) of the same molecule?
A: 0.25 µg/mL

Q: And the “MIC value” value ([1]; strain F7-1 (F-type))?
A: 0.5 µg/mL

Q: And the “MIC value” value ([1]; strain F8-1 (F-type))?
A: 0.25 µg/mL

Q: What about the “MIC value” value ([1]; strain H12-1 (H-type)) of the same molecule?
A: 0.25 µg/mL

Q: What about the “MIC value” value ([1]; strain H12-2 (H-type)) of the same molecule?
A: 0.125 µg/mL

Q: What about the “MIC value” value ([1]; strain H13-1 (H-type)) of the same molecule?
A: 0.0625 µg/mL

Q: And the “MIC value” value ([1]; strain H14-1 (H-type))?
A: 0.25 µg/mL

Q: And the “MIC value” value ([1]; strain H14-2 (H-type))?
A: 1 µg/mL

Q: And the “MIC value” value ([1]; strain H14-4 (H-type))?
A: 0.125 µg/mL

Q: What about the “MIC value” value ([1]; strain H15-1 (H-type)) of the same molecule?
A: 0.25 µg/mL

Q: What about the “MIC value” value ([1]; strain H15-2 (H-type)) of the same molecule?
A: 0.25 µg/mL

Q: What about the “MIC value” value ([1]; strain H15-3 (H-type)) of the same molecule?
A: 0.25 µg/mL

Q: And the “MIC value” value ([1]; strain H16 (H-type))?
A: 0.125 µg/mL
